Measurements from article PMC9051106, “Structural insights into TRPV2 activation by small molecules” (Nature Communications, 2022).
“And” between values parts separate entries of the source, which are not always exact repeats. Equal entries are not always repeated.

How the values were obtained:
wildtype rat TRPV2 [1] = molecular target: T1, wildtype rat TRPV2 (Rattus norvegicus, UniProt Q9WUD2); assay: Whole-cell patch recordings, current density with 2-APB alone and 2-APB co-applied with CBD; assay type: cell-based; set-up: expressed in transfected cells; host or cells: HEK293T; details: for current density: Mean ± SEM, N = 7
T1 sequence (Q9WUD2 1-761): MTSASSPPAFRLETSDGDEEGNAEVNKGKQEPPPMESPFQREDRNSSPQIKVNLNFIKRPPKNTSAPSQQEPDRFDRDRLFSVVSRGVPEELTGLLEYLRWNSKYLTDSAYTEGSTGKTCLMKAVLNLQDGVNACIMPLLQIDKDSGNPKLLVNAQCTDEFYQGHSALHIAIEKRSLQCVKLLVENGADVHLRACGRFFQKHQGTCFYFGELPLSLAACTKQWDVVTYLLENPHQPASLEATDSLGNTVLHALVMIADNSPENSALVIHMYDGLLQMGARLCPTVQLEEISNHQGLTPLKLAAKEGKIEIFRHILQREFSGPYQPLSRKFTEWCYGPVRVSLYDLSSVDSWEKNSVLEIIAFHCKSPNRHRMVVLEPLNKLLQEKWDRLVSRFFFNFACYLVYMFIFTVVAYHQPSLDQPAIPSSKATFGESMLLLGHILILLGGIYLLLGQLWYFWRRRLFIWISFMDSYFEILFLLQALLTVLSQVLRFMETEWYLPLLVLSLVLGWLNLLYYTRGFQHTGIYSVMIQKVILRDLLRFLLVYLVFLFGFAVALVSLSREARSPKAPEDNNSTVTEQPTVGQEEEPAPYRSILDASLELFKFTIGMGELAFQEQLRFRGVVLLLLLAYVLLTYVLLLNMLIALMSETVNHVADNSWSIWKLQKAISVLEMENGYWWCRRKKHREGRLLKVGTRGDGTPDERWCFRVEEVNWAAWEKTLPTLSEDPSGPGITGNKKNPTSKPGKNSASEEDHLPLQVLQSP
Protocol: (§1) Nanofectin (PAA, Pasching, Austria) was used to transfect HEK293T cells with WT rat TRPV2, Arg535Lys rat TRPV2, Arg539Lys rat TRPV2, His521Ala rat TRPV2, His521Asn rat TRPV2, His521Ala/Arg539Lys rat TRPV2, Thr522Ala rat TRPV2 and Tyr525Ala rat TRPV2. Mutants were generated according to the instructions of the manufacturer by site directed mutagenesis with the quick-change lightning site-directed mutagenesis kit (Aglient, Waldbronn, Germany). […] Cells were cultured at 37 °C with 5% CO2 in Dulbecco’s modified Eagle medium nutrient mixture F12 (DMEM/F12 Gibco/Invitrogen, Darmstadt, Germany) and supplemented with 10% fetal bovine serum, (Biochrom, Berlin, Germany).
(§2) Whole-cell voltage clamp was performed with an EPC10 USB HEKA amplifier (HEKA Electronik, Lamprecht, Germany), much as previously described. Signals were low passed at 1 kHz and sampled at 2–10 kHz. Patch pipettes were pulled from borosilicate glass tubes (TW150F-3; World Precision Instruments, Berlin, Germany) to give a resistance of about 3 MΩ. Cells were held at −60 mV and all recordings were performed at room temperature. The external solution contained: 140 mM NaCl, 5 mM KCl, 2 mM MgCl2, 5 mM EGTA, 10 mM glucose, and 10 mM HEPES, pH 7.4 (adjusted with NaOH). Calcium was omitted in order to avoid desensitization. The standard pipette solution contained: 140 mM KCl, 2 mM MgCl2, 5 mM EGTA and 10 mM HEPES, pH 7.4 (adjusted with KOH). A gravity-driven glass multi-barrel perfusion system was used to bath apply solutions. Data acquisition and off-line analyses required Patchmaster/Fitmaster software (HEKA Electronik, Lamprecht, Germany) and Origin 8.5.1 (Origin Lab, Northampton, MA, USA).

[2] = molecular target: His521Ala/Arg539Lys rat TRPV2 (Rattus norvegicus, UniProt Q9WUD2, H521A/R539K)
Protocol: as §1, §2

wildtype rat TRPV2 [3] = molecular target: T1, wildtype rat TRPV2
Protocol: as §1, §2

His521Asn rat TRPV2 = His521Asn rat TRPV2 (Rattus norvegicus, UniProt Q9WUD2, H521N)
Protocol: as §1, §2

His521Ala rat TRPV2 = His521Ala rat TRPV2 (Rattus norvegicus, UniProt Q9WUD2, H521A)
Protocol: as §1, §2

Arg539Lys rat TRPV2 = Arg539Lys rat TRPV2 (Rattus norvegicus, UniProt Q9WUD2, R539K)
Protocol: as §1, §2

Arg535Lys rat TRPV2 = Arg535Lys rat TRPV2 (Rattus norvegicus, UniProt Q9WUD2, R535K)
Protocol: as §1, §2

Thr522Ala rat TRPV2 = Thr522Ala rat TRPV2 (Rattus norvegicus, UniProt Q9WUD2, T522A)
Protocol: as §1, §2

Tyr525Ala rat TRPV2 = Tyr525Ala rat TRPV2 (Rattus norvegicus, UniProt Q9WUD2, Y525A); details: with either 2-APB or heat
Protocol: as §1, §2

[4] = HEK293T, held at −60 mV, mean ± S.E.M.

Sequence of Arg539Lys rat TRPV2 (Q9WUD2 whole entry R539K): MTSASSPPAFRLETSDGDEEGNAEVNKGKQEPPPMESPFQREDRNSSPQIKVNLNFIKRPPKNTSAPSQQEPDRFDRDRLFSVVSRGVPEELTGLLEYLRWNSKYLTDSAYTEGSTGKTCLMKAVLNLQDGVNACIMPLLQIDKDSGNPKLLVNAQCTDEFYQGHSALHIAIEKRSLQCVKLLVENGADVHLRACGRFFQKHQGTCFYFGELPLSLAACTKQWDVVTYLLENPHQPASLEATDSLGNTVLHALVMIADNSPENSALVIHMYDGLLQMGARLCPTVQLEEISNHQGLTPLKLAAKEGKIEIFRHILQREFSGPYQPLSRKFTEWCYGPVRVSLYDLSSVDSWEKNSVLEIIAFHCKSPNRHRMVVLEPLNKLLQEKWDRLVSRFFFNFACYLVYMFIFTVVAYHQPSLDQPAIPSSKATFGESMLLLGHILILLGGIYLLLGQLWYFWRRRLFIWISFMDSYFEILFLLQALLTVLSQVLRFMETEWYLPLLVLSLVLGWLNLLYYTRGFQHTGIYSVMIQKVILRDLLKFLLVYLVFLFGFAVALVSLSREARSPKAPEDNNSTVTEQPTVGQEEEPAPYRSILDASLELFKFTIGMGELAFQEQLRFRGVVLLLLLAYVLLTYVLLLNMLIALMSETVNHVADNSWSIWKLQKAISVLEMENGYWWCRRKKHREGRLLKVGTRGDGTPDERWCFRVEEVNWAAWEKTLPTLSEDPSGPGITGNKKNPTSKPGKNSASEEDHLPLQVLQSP
Sequence of His521Ala/Arg539Lys rat TRPV2 (Q9WUD2 whole entry H521A/R539K): as the sequence (Q9WUD2 whole entry R539K) above, with H521A counted along it
Sequence of His521Ala rat TRPV2 (Q9WUD2 whole entry H521A): as the sequence (Q9WUD2 whole entry R539K) above, with H521A, K539R counted along it
Sequence of His521Asn rat TRPV2 (Q9WUD2 whole entry H521N): as the sequence (Q9WUD2 whole entry R539K) above, with H521N, K539R counted along it
Sequence of Thr522Ala rat TRPV2 (Q9WUD2 whole entry T522A): as the sequence (Q9WUD2 whole entry R539K) above, with T522A, K539R counted along it
Sequence of Arg535Lys rat TRPV2 (Q9WUD2 whole entry R535K): as the sequence (Q9WUD2 whole entry R539K) above, with R535K, K539R counted along it
Sequence of Tyr525Ala rat TRPV2 (Q9WUD2 whole entry Y525A): as the sequence (Q9WUD2 whole entry R539K) above, with Y525A, K539R counted along it

With `NCCOB(c1ccccc1)c1ccccc1` [2-APB, 2-aminoethoxydiphenyl borate] the current density (wildtype rat TRPV2 [1]; 2-APB alone 10 μM) was 0.98 ± 0.1 pA/pF, the current (wildtype rat TRPV2 [1]; 2-APB alone 10 µM, single cell) was 12.35 and 14.18 and 12.95 and 20 and 11.76 and 11.18 and the current density (wildtype rat TRPV2 [1]; 2-APB alone 30 μM) was 2.8 ± 0.3 pA/pF. It also gave a current density (wildtype rat TRPV2 [1]; 2-APB alone 100 μM) of 24.9 ± 3.7 pA/pF, a Hill coefficient ([2]; His521Ala/Arg539Lys) of 5.2 ± 0.6 and an EC50 ([2]; His521Ala/Arg539Lys, HEK293T, held at −60 mV, mean ± S.E.M.) of 1750 ± 125 µM. The “decrease in 2-APB sensitivity” value ([2]; double mutant compared to the wildtype TRPV2) was “fivefold”, the Hill coefficient (wildtype rat TRPV2 [3]; wildtype) was 3.0 ± 0.2 and the EC50 (wildtype rat TRPV2 [3]; wildtype rat TRPV2, HEK293T, held at −60 mV, mean ± S.E.M.) was 322 ± 27 µM. It also gave a Hill coefficient (His521Asn rat TRPV2) of 4.3 ± 0.3, an EC50 (His521Asn rat TRPV2; HEK293T, held at −60 mV) of 742 ± 14 µM and a Hill coefficient (His521Ala rat TRPV2) of 3.3 ± 0.3. The EC50 (His521Ala rat TRPV2; [4]) was 991 ± 131 µM, the Hill coefficient (Arg539Lys rat TRPV2; Arg539Lys) was 5.6 ± 1.1 and the EC50 (Arg539Lys rat TRPV2; Arg539Lys, HEK293T, held at −60 mV, mean ± S.E.M.) was 683 ± 78 µM. The “Current (minus Leak)” value (Arg539Lys rat TRPV2; rTRPV2 - R539K, 2-APB 50µM, single cell) was 6.3 and 7.05 and 6.6, the Hill coefficient (Arg535Lys rat TRPV2) was 3.3 ± 0.5 and the EC50 (Arg535Lys rat TRPV2; [4]) was 79 ± 11 µM. For the same molecule, the Hill coefficient (Thr522Ala rat TRPV2) was 3.0 ± 0.3, the EC50 (Thr522Ala rat TRPV2; [4]) was 232 ± 43 µM and the membrane currents evoked (Tyr525Ala rat TRPV2) was “could not evoke any membrane currents”.
